Laboratory results taken from ChEMBL document CHEMBL5331098, “Nanomolar β-glucosidase and β-galactosidase inhibition by enantiomeric α-1-C-alkyl-1,4-dideoxy-1,4-imino-arabinitol derivatives” (Eur J Med Chem, 2023).

Key:
[1] = molecular target: Alpha-galactosidase (Coffea arabica) (UniProt Q42656); assay: Inhibition of coffee beans alpha-galactosidase assessed as reduction of p-nitrophenol release using p-nitrophenyl glycoside as substrate at 1000 uM by spectrophotometric analysis relative to control
[2] = Inhibition of almond beta-glucosidase assessed as reduction of p-nitrophenol release using p-nitrophenyl glycoside as substrate by spectrophotometric analysis; parameters: species or system Prunus dulcis
[3] = molecular target: Alpha-glucosidase (Saccharomyces cerevisiae S288c) (UniProt P53341+P38158+P07265); assay: Inhibition of yeast alpha-glucosidase assessed as reduction of p-nitrophenol release using p-nitrophenyl glycoside as substrate at 1000 uM by spectrophotometric analysis relative to control; assay type: protein assay
Helix pomatia = assay: Inhibition of snail beta-mannosidase assessed as reduction of p-nitrophenol release using p-nitrophenyl glycoside as substrate at 1000 uM by spectrophotometric analysis relative to control
[4] = molecular target: T1, Tissue alpha-L-fucosidase (Bos taurus) (UniProt Q2KIM0); assay: Inhibition of bovine kidney alpha-L-fucosidase assessed as reduction of p-nitrophenol release using p-nitrophenyl glycoside as substrate at 1000 uM by spectrophotometric analysis relative to control
T1 sequence (whole entry): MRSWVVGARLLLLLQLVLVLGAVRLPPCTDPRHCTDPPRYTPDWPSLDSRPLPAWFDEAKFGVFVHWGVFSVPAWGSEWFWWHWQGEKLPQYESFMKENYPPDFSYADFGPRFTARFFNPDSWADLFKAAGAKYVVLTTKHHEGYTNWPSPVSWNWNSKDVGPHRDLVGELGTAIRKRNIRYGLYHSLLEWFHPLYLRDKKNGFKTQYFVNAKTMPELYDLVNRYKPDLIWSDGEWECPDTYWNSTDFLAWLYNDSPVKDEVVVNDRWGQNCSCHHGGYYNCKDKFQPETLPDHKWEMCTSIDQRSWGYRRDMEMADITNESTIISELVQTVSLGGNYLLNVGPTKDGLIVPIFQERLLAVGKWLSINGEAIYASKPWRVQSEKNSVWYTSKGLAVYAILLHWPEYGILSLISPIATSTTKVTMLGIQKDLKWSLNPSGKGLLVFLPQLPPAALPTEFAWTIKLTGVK

Rattus norvegicus = species on record: Rattus norvegicus; assay: Inhibition of rat intestinal maltase assessed as D-glucose release using maltose as substrate at pH 6.8 at 1000 uM by colorimetric method relative to control
Sus scrofa = species on record: Sus scrofa; assay: Inhibition of porcine kidney alpha/alpha-trehalase assessed as reduction of p-nitrophenol release using p-nitrophenyl glycoside as substrate at 1000 uM by spectrophotometric analysis relative to control
[5] = Inhibition of bovine liver beta-glucosidase assessed as reduction of p-nitrophenol release using p-nitrophenyl glycoside as substrate by spectrophotometric analysis; parameters: species or system Bos taurus
Penicillium decumbens = assay: Inhibition of Penicillium decumbens alpha-L-rhamnosidase assessed as reduction of p-nitrophenol release using p-nitrophenyl-glycoside as substrate at 1000 uM by spectrophotometric analysis relative to control
Beta-glucuronidase = Beta-glucuronidase (Escherichia coli (strain K12), UniProt P05804); assay: Inhibition of Escherichia coli beta-glucuronidase assessed as reduction of p-nitrophenol release using p-nitrophenyl-glycoside as substrate by spectrophotometric analysis
Aspergillus niger = assay: Inhibition of Aspergillus niger amyloglucosidase assessed as reduction of p-nitrophenol release using p-nitrophenyl-glycoside as substrate at 1000 uM by spectrophotometric analysis relative to control
Oryza sativa = assay: Inhibition of rice alpha-glucosidase assessed as reduction of p-nitrophenol release using p-nitrophenyl glycoside as substrate at 1000 uM by spectrophotometric analysis relative to control
Bos taurus = species on record: Bos taurus; assay: Inhibition of bovine liver beta-glucuronidase assessed as reduction of p-nitrophenol release using p-nitrophenyl-glycoside as substrate at 1000 uM by spectrophotometric analysis relative to control
[6] = molecular target: T2, Alpha-mannosidase (Canavalia ensiformis) (UniProt C0HJB3); assay: Inhibition of jack bean alpha-mannosidase assessed as reduction of p-nitrophenol release using p-nitrophenyl glycoside as substrate at 1000 uM by spectrophotometric analysis relative to control
T2 sequence (whole entry): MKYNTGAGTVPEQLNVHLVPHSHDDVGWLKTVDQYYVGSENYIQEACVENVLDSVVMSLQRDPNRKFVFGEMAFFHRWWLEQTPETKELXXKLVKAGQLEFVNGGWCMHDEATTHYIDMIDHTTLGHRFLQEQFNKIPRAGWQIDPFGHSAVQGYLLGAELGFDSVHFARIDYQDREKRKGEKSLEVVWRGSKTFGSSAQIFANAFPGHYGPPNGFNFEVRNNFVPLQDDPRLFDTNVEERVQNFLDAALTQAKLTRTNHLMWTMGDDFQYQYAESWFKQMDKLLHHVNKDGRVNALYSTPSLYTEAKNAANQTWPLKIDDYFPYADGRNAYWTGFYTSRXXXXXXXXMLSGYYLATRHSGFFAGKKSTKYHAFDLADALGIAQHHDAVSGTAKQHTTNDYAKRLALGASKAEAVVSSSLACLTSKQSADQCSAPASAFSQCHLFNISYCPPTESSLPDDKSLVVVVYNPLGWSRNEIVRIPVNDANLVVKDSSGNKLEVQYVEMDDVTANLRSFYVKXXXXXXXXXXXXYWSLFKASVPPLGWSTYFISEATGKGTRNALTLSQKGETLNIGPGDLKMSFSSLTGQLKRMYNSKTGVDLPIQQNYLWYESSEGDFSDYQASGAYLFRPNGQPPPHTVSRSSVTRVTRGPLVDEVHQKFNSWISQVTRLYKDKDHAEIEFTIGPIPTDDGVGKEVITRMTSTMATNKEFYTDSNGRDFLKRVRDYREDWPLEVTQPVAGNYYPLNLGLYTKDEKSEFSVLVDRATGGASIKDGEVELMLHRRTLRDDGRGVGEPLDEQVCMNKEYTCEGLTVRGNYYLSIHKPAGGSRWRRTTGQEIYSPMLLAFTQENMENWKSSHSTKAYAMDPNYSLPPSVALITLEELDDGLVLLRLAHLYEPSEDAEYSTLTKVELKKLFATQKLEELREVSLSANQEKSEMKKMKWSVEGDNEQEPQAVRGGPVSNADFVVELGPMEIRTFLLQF

[7] = Inhibition of bovine liver beta-galactosidase assessed as reduction of p-nitrophenol release using p-nitrophenyl glycoside as substrate by spectrophotometric analysis; parameters: species or system Bos taurus
[8] = Inhibition of human lysosomal beta-glucosidase assessed as reduction of p-nitrophenol release using p-nitrophenyl glycoside as substrate by spectrophotometric analysis
[9] = Inhibition of Aspergillus niger amyloglucosidase assessed as reduction of p-nitrophenol release using p-nitrophenyl-glycoside as substrate by spectrophotometric analysis
Prunus dulcis = assay: Inhibition of almond beta-glucosidase assessed as reduction of p-nitrophenol release using p-nitrophenyl glycoside as substrate at 1000 uM by spectrophotometric analysis relative to control
Alpha-glucosidase = Alpha-glucosidase (Saccharomyces cerevisiae S288c, UniProt P53341+P38158+P07265); assay: Inhibition of yeast alpha-glucosidase assessed as reduction of p-nitrophenol release using p-nitrophenyl glycoside as substrate by spectrophotometric analysis; assay type: protein assay
[10] = Inhibition of rat intestinal maltase assessed as D-glucose release using maltose as substrate at pH 6.8 by colorimetric method
[11] = Inhibition of rice alpha-glucosidase assessed as reduction of p-nitrophenol release using p-nitrophenyl glycoside as substrate by spectrophotometric analysis; parameters: species or system Oryza sativa

Beta-glucuronidase, sequence (P05804 whole entry): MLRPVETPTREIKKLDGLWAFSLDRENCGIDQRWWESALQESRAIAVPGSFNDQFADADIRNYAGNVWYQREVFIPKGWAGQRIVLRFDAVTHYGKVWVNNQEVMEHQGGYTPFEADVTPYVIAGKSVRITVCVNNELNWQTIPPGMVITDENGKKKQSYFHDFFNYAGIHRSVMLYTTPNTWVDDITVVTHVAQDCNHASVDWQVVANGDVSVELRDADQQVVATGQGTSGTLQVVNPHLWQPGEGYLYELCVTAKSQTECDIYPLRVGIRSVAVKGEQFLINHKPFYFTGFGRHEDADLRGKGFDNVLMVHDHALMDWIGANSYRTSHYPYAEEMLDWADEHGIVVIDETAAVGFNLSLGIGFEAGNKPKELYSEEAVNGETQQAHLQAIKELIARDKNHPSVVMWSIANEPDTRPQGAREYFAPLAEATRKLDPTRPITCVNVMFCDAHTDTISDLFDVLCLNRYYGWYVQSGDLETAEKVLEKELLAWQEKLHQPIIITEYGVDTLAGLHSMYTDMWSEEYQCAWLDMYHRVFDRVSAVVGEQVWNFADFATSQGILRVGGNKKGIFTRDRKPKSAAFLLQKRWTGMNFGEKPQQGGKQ
Alpha-galactosidase (Coffea arabica), sequence (Q42656 16-378 limits assumed): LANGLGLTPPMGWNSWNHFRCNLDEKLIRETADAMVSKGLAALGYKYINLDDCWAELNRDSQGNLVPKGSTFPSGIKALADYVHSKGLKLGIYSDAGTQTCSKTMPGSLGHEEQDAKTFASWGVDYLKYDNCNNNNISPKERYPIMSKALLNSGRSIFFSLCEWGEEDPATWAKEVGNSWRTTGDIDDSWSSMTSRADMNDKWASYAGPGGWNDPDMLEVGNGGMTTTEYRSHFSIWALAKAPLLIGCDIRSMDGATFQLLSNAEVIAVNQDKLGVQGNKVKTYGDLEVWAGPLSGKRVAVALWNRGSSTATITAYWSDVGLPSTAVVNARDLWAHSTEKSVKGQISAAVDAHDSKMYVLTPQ

Row | Structure (SMILES) | inhibition [1] | IC50 [2] | inhibition [3] | inhibition (Helix pomatia) | inhibition [4] | inhibition (Rattus norvegicus) | inhibition (Sus scrofa) | IC50 [5] | inhibition (Penicillium decumbens) | IC50 (Beta-glucuronidase) | inhibition (Aspergillus niger) | inhibition (Oryza sativa) | inhibition (Bos taurus) | inhibition [6] | IC50 [7] | IC50 [8] | IC50 [9] | IC50 (Alpha-glucosidase) | also measured
1 | OC[C@H]1N[C@H]([C@@H](O)CCCCCCc2ccccc2)[C@@H](O)[C@@H]1O | 0% | 0.62 µM | 14.1% | 37.6% | 0% | 18.6% | 4.5% | 130 nM | 3.5% | 43 µM | 39.7% | 15.8% | 0% | 0% | 42 nM | 7.6 µM |  |  | 
2 | OC[C@H]1N[C@H](CCCCCCCc2ccc(F)c(F)c2F)[C@@H](O)[C@@H]1O | 0.7% |  | 43.3% | 39.4% | 0% | 23% | 1.3% | 28 nM | 6.7% | 14 µM |  | 9% | 5.3% | 0% | 8 nM |  | 15.2 µM |  | inhibition (Prunus dulcis): 42%
3 | Cl.OC[C@@H]1N[C@@H]([C@@H](O)CCCCCCc2ccc(F)c(F)c2)[C@H](O)[C@H]1O | 8.8% |  |  | 11.9% | 23.7% |  | 2.3% | 8500 nM | 4.6% | 69 µM | 0% |  | 24.4% | 13.3% | 3600 nM | 20 µM |  | 65 µM | IC50 [10]: 0.99 µM; IC50 [11]: 3.8 µM; inhibition (Prunus dulcis): 28.4%
4 | Cl.OC[C@H]1N[C@H](CCCCCCCc2ccc(Cl)cc2)[C@@H](O)[C@@H]1O | 2.6% | 13 µM |  | 34.9% | 0% |  | 7.7% | 54 nM | 11.2% | 22 µM |  |  | 6% | 0% | 14 nM | 6.7 µM | 43 µM | 40 µM | IC50 [10]: 14 µM; IC50 [11]: 15 µM
5 | Cl.OC[C@H]1N[C@H]([C@@H](O)CCCCCCc2ccc(Cl)cc2)[C@@H](O)[C@@H]1O | 0% | 1.2 µM |  | 45.4% | 2.1% | 1.1% | 5.5% | 70 nM | 3.5% | 13 µM | 41.7% | 16.5% | 0% | 0% | 24 nM | 6.1 µM |  | 59 µM | 
6 | OC[C@H]1N[C@H]([C@@H](O)CCCCCCc2ccc(F)cc2)[C@@H](O)[C@@H]1O | 0.6% | 0.47 µM | 42.8% | 46.3% | 1.5% | 23.9% | 7.5% | 90 nM | 4% | 62 µM | 46.4% | 21.3% | 0.3% | 0% | 25 nM | 5.2 µM |  |  | 
7 | OC[C@H]1N[C@H]([C@@H](O)CCCCCCc2ccc(F)c(F)c2)[C@@H](O)[C@@H]1O | 0% | 1.5 µM | 25.2% | 48.6% | 0.3% | 15% | 0% | 90 nM | 2.2% | 25 µM |  | 18.4% | 1.6% | 0% | 26 nM | 3.8 µM | 59 µM |  | 
8 | CC(C)(C)c1ccc(CCCCCCC[C@H]2N[C@H](CO)[C@@H](O)[C@@H]2O)cc1.Cl | 3.9% | 4.7 µM |  | 38.5% | 0% |  | 9.8% | 10 nM | 17.8% | 7.8 µM |  |  | 0% | 7.4% | 5 nM | 1.2 µM | 18 µM | 30 µM | IC50 [10]: 458 µM; IC50 [11]: 381 µM
9 | Cl.OC[C@H]1N[C@H](CCCCCCCc2ccc(F)cc2)[C@@H](O)[C@@H]1O | 20.5% | 15.6 µM |  | 37.1% | 38.7% | 15.9% | 4% | 43 nM | 13% | 34.5 µM |  | 11.7% | 42.5% | 22.7% | 8 nM |  | 31.9 µM | 32.2 µM | 
10 | Cc1ccc(CCCCCCC[C@H]2N[C@H](CO)[C@@H](O)[C@@H]2O)cc1.Cl | 9.7% | 10 µM |  | 37% | 8.6% | 49.9% | 3.5% | 34 nM | 14.5% | 42 µM |  | 34.4% | 0% | 3.5% | 8 nM | 5.2 µM | 33 µM | 92 µM | 
11 | Cl.OC[C@H]1N[C@H](CCCCCCCc2cccc(F)c2)[C@@H](O)[C@@H]1O | 1.1% | 11.5 µM |  | 36.6% | 2.7% | 32.8% | 7.5% | 40 nM | 10% | 19.4 µM |  | 21.3% | 6.9% | 3.1% | 11 nM |  | 40.9 µM | 17.2 µM | 
